Laboratory results as given in patent publication US3978055A, “Arylamino pyrimidinic derivatives” (priority 1973, dated 1976).
Like-named read-outs stand apart in the source and are kept apart here.

Key:
[1] = tested on: isolated heart of the guinea-pig; test: Force of contractions on isolated heart (positive inotrope action)
Method: Additionally, the derivative of Code No. 730 712 added to the conserving medium in a concentration of 1 μg/ml, permit an augmentation of 140% in the force of contractions on the isolated heart of the guinea- pig.

[2] = tested on: painful stretchings caused by phenylbenzoquinone; test: Analgesic test with phenylbenzoquinone (painful stretchings); format: in vivo; conditions: Mus musculus, po; for ED50: read-out: 105 DE (DE 50); for inhibition in vivo at 100 mg/kg: read-out: Percentage of diminution of the number of painful stretchings
[3] = tested on: painful stretchings caused by bradykinine; test: Analgesic test with bradykinine (painful stretchings); format: in vivo, mouse; conditions: for ED50: Mus musculus, po, read-out: 105 DE (DE 50)
[4] = tested on: analgesic action of dextromoramide in the Eddy test; test: Eddy test (potentialisation of dextromoramide analgesia); format: in vivo, mouse; conditions: for ED50: Mus musculus, po, read-out: 105 DE (DE 50)
[5] = Lethal doses / percentage mortality; format: in vivo; conditions: in vivo, mouse; for LD50: po, Table IX, read-out: DE 50 (second column; DL 50) (converted)
Text: (§1) As a result of a comparison between the pharmacologically active doses mentioned above, and the lethal doses listed in the following table XIV, the difference between the doses is sufficiently great to permit the utilisation of the derivatives of formula I in therapeutics.

mouse = test: Lethal doses / percentage mortality; format: in vivo; conditions: Table IX
Text: as §1

Shay ulcers = test: Gastric ulcers provoked by tying of the pylorus (Shay ulcers); format: in vivo; conditions: intraduodenal; rat, 50mg/kg/i.d.; read-out: Percentage reduction of shay ulcers
Method: The derivatives of formula I, administered by oral means, reduce the extent of gastric ulcers provoked in a rat by tying of the pylorus (Shay ulcers)
Table IV indicated, by way of example, the results obtained by the administration of 50mg/kg/i.d. of different derivatives of formula I.

[6] = tested on: crying and jumping in the Randall and Selitto test; test: Randall and Selitto test; format: in vivo, rat; conditions: for ED50: po, read-out: 105 DE (DE 50)
[7] = tested on: number of explorations in the escape enclosure; test: Number of explorations in the escape enclosure (sedative properties); format: in vivo, mouse; conditions: po
[8] = tested on: number of explorations in the actimeter; test: Number of explorations in an actimeter having luminous beams and photoelectric cells (sedative properties); format: in vivo; conditions: mouse, oral, read-out: DE 50, number of explorations in the actimeter
Method: The derivatives of formula I, administered by oral means to the mouse, reduce the number of explorations in the escape enclosure and in an actimeter having luminous beams and photoelectric cells.
Also, the DE 50 of the derivative of code No. 730 229 is 82mg/kg/p.o. for the test on the number of explorations in the escape enclosure and 120mg/kg/p.o. for the test on the number of explorations in the actimeter.

volume of urine emitted = test: Augmentation of urinary elimination (diuretic properties); format: in vivo; conditions: po; mouse, 25mg/kg/p.o., 6 hours; read-out: Percentage augmentation of urinary elimination
Method: The derivatives of formula I, administered by oral means to the mouse, simultaneously with a volume of 1ml of an isotonic solution of sodium chloride per 25g of the corporeal weight of the mouse, are capable of provoking an augmentation of the volume of urine emitted by reference to control animals, the volume being measured for 6 hours following administration.
The following Table VII indicates, by way of example the percentage augmentation of urinary elimination resulting from the administration of 25mg/kg/p.o. of different derivatives of formula I.

[9] = tested on: painful stretchings caused by acetic acid; test: Analgesic test with acetic acid (painful stretchings); format: in vivo, mouse; conditions: po, read-out: 105 DE (DE 50)
[10] = tested on: pain threshold in the dentary pulp stimulation test; test: Dentary pulp stimulation test; format: in vivo; conditions: rabbit
Text: Moreover, the derivatives of formula I, administered rectally to a rabbit, enabled the pain threshold to be raised in the dentary pulp stimulation test.
As an example, the following table XI gives the results of a comparative study between the activity of derivative code number 730 229 and that of glaphenine, the activities being estimated by the dentary stimulation test

[11] = tested on: local oedema caused by sub-plantar injection of carraghenine; test: Sub-plantar oedema caused by carraghenine (antiinflammatory); format: in vivo, rat; conditions: for ED50: po
Text: These properties are shown by a diminution of the local oedema caused by the sub-plantar injection of a phlogogenic agent, such as carraghenine, in the rat following the oral administration of derivatives of formula I.

[12] = tested on: isolated heart of guinea-pig; test: Augmentation of flow of coronary vessels of isolated heart (vasodilatatory); conditions: Cavia porcellus; 0.5 μg/ml; read-out: Percentage augmentation of flow of isolated heart of guinea-pig
Method: The derivatives of formula I are capable of augmenting the flow of the coronary vessels of this isolated heart of a guinea - pig, when said derivatives are added in the perfusion liquid of said organ.
The percentage augmentation of the flow of the isolated heart of the guinea - pig by adding different derivatives of formula I to the perfusion liquid are given by way of example in the following Table V.

[13] = tested on: arterial pressure of anaesthetised rat; test: Lowering of arterial pressure of anaesthetised rat (hypotensive properties); format: in vivo; conditions: 2 mg/kg/i.v.
Text: Administered by intraveinous means to an anaesthetised rat, the derivatives of formula I provoke a lowering of the arterial pressure.
By way of example, the following Table VIII mentions the results obtained by administration of different derivatives of formula I.

[14] = tested on: arterial pressure of an anaesthetised rat; test: Increase in arterial pressure of anaesthetised rat (hypertensive properties); format: in vivo; conditions: 2 mg/kg/i.v.
Method: Administered by intraveinous means, the derivatives of formula I provoke an increase in the arterial pressure of an anaosthetised rat.
By way of example, the results obtained by the administration of 2 mg/kg/i.v. of different derivatives of formula I are listed in the following Table III.

[15] = antiinflammatory activity, rat, read-out: DE 50 (the source's name)

Row | Structure (SMILES) | ED50 [2] [mg/kg] | ED50 [4] [mg/kg] | LD50 [5] [mg/kg] | DE 50 (second column; DL 50) (mouse) | mortality ([5]; 2000 mg/kg, 2 000 mg/kg/PO) [%] | ED50 [3] [mg/kg] | ED50 ([9]; test with acetic acid, mouse) [mg/kg] | ED50 ([6]; Randall and Selitto test, rat) [mg/kg] | ED50 [11, 15] [mg/kg] | also measured
1 | Cc1cc(Nc2ccc(OCCN3CCCC3)cc2)nc(-c2ccccc2)n1 [730 218] | 37 | 50 | 1500 | 1 500 mg/kg/PO |  |  |  |  |  | positive inotrope action ([1]; 0.5 μg/ml): positive inotrope action; Percentage of diminution of the number of painful stretchings ([3]; test with bradykinine, 100 mg/kg/PO): 40%; mortality ([5]; 1 2500 mg/kg/PO): ~50%
2 | Cc1cc(Nc2ccc(OCCN(C)C)cc2)nc(-c2ccc(Cl)cc2)n1 [730 225] | 42 | 80 | > 2000 |  | ~20 |  |  |  |  | inhibition in vivo at 50 mg/kg (Shay ulcers): 53%; Percentage of diminution of the number of painful stretchings ([6]; Randall and Selitto test, 100 mg/kg/PO): 50%
3 | Cc1cc(Nc2ccc(OCCN3CCOCC3)cc2)nc(-c2ccccc2)n1 [730 229] | 10 | 23 | 2800 | 2 800 mg/kg/PO |  | 45 | 70 | 45 | 22 | ED50 ([7]; Mus musculus, read-out: DE 50, number of explorations in the escape enclosure): 82 mg/kg; ED50 [8]: 120 mg/kg; change in vivo at 25 mg/kg (volume of urine emitted): 129%; Duration of action ([10]; 50 mg/kg rectally): 2 h; Number of rabbits whose pain threshold is increased by 0,5 V ([10]; 50 mg/kg rectally): 7/10; Peak action ([10]; 50 mg/kg rectally): 1 h; antiinflammatory activity compared with reference compounds ([11]; comparison of Table XIII): clearly superior to that of amidopyrine and acetylsalicylic acid, and hardly inferior to that of glaphenine; mortality ([5]; 2 800 mg/kg/PO): ~50%
4 | Cc1cc(Nc2ccc(OCCN(C)C)cc2)nc(-c2cccc(C(F)(F)F)c2)n1 [730 241] |  |  |  |  | 0 |  |  |  |  | activation at 0.5 µg/mL [12]: 77%; Percentage reduction of arterial pressure of anaesthetised rat [13]: 24%; Duration of effect ([13]; hypotensive effect): 30 mn; inhibition in vivo at 100 mg/kg [2]: 67%
5 | Cc1cc(Nc2ccc(OCCN(C)C)cc2)nc(-c2cccc(Cl)c2)n1 [730 262] | 52 | 60 | 2500 | 2 500 mg/kg/PO |  | 100 |  |  |  | mortality ([5]; 2 2500 mg/kg/PO): ~50%
6 | Cc1cc(Nc2ccc(OCCN3CCOCC3)cc2)nc(-c2cccc(C(F)(F)F)c2)n1 [730 712] |  |  |  |  | 0 |  |  |  |  | inhibition in vivo at 100 mg/kg ([7]; mouse, escape enclosure, 100mg/kg/p.o., read-out: Percentage diminution of number of explorations): 32%; Percentage augmentation of arterial pressure [14]: 23%; change in vivo at 25 mg/kg (volume of urine emitted): 90%; activation at 1 µg/mL ([1]; Cavia porcellus, 1 μg/ml, read-out: augmentation in the force of contractions): 140%; inhibition in vivo at 100 mg/kg [2]: 60%
7 | CC(=O)Oc1ccccc1C(=O)O [acetylsalicylic acid, reference compound] | 72 | > 200 | 700 |  |  | 180 |  |  |  | ED50 ([9]; Mus musculus): 115 mg/kg; effect in Eddy test (40 % with 200) ([4]; 200 mg/kg/PO): 40%; ED50 ([6]; Rattus norvegicus): 110 mg/kg; ED50 ([11]; Rattus norvegicus, read-out: DE 50): 40 mg/kg
8 | Cc1c(N(C)C)c(=O)n(-c2ccccc2)n1C [amidopyrine, 4-dimethylamino-2,3-dimethyl-1 phenyl-3-pyrazolin-5-one, reference compound] | 45 | 35 | 1050 | 1 050 mg/kg/PO |  | 48 | 80 | 110 | 140 | DE 50 / DL 50 ([6]; Randall and Selitto test): 1.10^-1
9 | O=C(OCC(O)CO)c1ccccc1Nc1ccnc2cc(Cl)ccc12 (centres unmarked) [glaphenine, N-(7-chloro-4-quinolyl) anthranilic acid 2,3-dihydroxypropylester] | 60 |  | 1900 | 1 900 mg/kg/PO |  | 48 | 80 | 65 | 9 | Duration of action ([10]; 50 mg/kg rectally): 1 h; Number of rabbits whose pain threshold is increased by 0,5 V ([10]; 50 mg/kg rectally): 4/10; Duration of action ([10]; 100 mg/kg rectally): 1,5 hours; Number of rabbits whose pain threshold is increased by 0,5 V ([10]; 100 mg/kg rectally): 6/10; Peak action ([10]; 100 mg/kg rectally): 45 mn; Duration of action ([10]; 200 mg/kg rectally): 2 h; Number of rabbits whose pain threshold is increased by 0,5 V ([10]; 200 mg/kg rectally): 8/10
